# Patent publication US8865741B2, “Aminoindane compounds and use thereof in treating pain” (Asana Biosciences, LLC, priority 2011, dated 2014)
# Where two headings read alike, the source gives them in different places.
# Key:
# [1] = tested on: Male Sprague Dawley (SD) rats; assay: In vivo assay of mechanical nociception (rat pinch model, perisciatic injection); details: for Average Time of Analgesia: perisciatic
# [2] = molecular target: T1, human Nav1.5 sodium channel (Homo sapiens, UniProt Q14524); assay: Inhibition of sodium channel response in hNav1.5-HEK293 cells (FLIPR, veratridine); type: cell-based; details: for IC50: average, read-out: HEK Nav 1.5 IC50 (μM) (AVG); for inhibition at 10 min, 0.5 mM / inhibition at 10 min, 1.5 mM: human, HEK-293 cells expressing human Nav1.5 (hNav1.5-HEK-293), pH 7.4; for inhibition at 10 min, 0.5 mM: read-out: HEK Nav 1.5 % inh. @ 0.5 mM; for inhibition at 10 min, 1.5 mM: read-out: HEK Nav 1.5 % inh. @ 1.5 mM
# T1 construct: host or cells: HEK-293
# Method: C. Method for Assessing the Extent of Inhibition of Sodium Channel Response with Compounds in hNav1.5-HEK293 Cells.
# The following assay was used to assess the tendency of the test compounds to block the dominant cardiac sodium channel isoform. Nav1.5 sodium channels are known to be permeable to quaternary sodium channel blockers such as QX-314 and, thus, the assay was performed in the absence of a chemical TRPV1 agonist.
# The hNav1.5-HEK-293 cells (CreaCell, France, a human embryonic kidney cell line expressing the human Nav1.5 sodium channel) were cultured in Growth medium (containing 1×DMEM (Gibco)+10% FBS (PAA Gold)+2% Glutamine 100 mM (Gibco)+1% penicillin 10,000 U/mL streptomycin 10,000 μg/mL (Invitrogen)+1.2 mg/mL Geneticin G418 (Invitrogen)) in […] cell bind flasks (Corning). The following steps were followed exactly as mentioned. The spent medium was discarded and the cells rinsed once with PBS-1×. Accutase® (1-2 mL; PAA) solution was added. The plate was placed on a 37° C. warming incubator 3-5 minutes. As soon as cells are detached, 37° C. complete medium (9 mL) was added. The cell suspension was drawn into a sterile pipette and cells homogenized gently to dissociate cell aggregates. The cells were counted using a hemocytometer with Blue Trypan and then centrifuged 5 minutes at 400 g. The cells can be amplified or maintained by seeding […] in a T75 flask (final volume: 15 mL). 8000 cells in 50 μL Growth medium was added to each well of 384-well, clear bottomed, sterile poly-D-lysine coated plates with lid (Greiner-bio one) inside the laminar air-flow. The plates were incubated at 37° C. and 5% CO2 in a CO2 incubator (Thermo) for 48 hours.
# On the day of the assay, cells were washed with Assay buffer, which was prepared using the components and amounts in Table 4. The pH was adjusted to 7.4 with NaOH, volume made up to 500 mL with Milli-Q® water.
# Assay Buffer was added to the cells and incubated at rt (25° C.) for 10 minutes. The compounds were diluted in assay buffer. The compounds were added and incubated at rt (25° C.) for 10 minutes. Red FMP Dye (MDC) was added to the cells and the plate was incubated at rt (25° C.) for 30 minutes. Veratridine stock (20 mM; Sigma) was prepared in DMSO; veratridine (final concentration of 30 μM) in assay buffer was added to each well of the cell seeded plates in the FLIPR® system and read taken for 10 minutes. Table 5 provides data illustrating the sodium channel activity of the test compounds in response to the presence or absence of heat stimulation in cells expressing hTRPV1. The compounds were tested for differential activity at 25° C. and 47° C. and at two test concentrations. Compounds showing the most promising profiles were further evaluated for IC50 in the 47° C. assay, examples are shown in Table 5.
# [3] = tested on: sodium channel in hTRPV1-N1E115 cells; assay: FLIPR membrane potential assay of sodium channel response in hTRPV1-N1E115 cells, with (47° C.) or without (25° C.) heat activation of hTRPV1; type: cell-based; details: for hTRPV1-N1E Nav 0.1 mM (% inhibition) 25° C. / hTRPV1-N1E Nav 1 mM (% inhibition) 25° C.: 25° C. (no heat activation of hTRPV1); for hTRPV1-N1E Nav 0.1 mM (% inhibition) 47° C. / hTRPV1-N1E Nav 1 mM (% inhibition) 47° C.: 47° C. (heat activation of hTRPV1); for IC50: read-out: hTRPV1-N1E IC50 (μM) 47° C.
# Excerpt: In one embodiment, a modified FLIPR® (Fluorometric Imaging Plate Reader) based assay system was developed which is capable of discriminating between non-specific versus hTRPV1-mediated entry of test compounds. Advantageously, the assay system utilizes heat activated opening of hTRPV1 channels followed by an assessment of internal sodium channel block. The assay allows a permanently charged compound to selectively enter through opened hTRPV1 channels and that compound's potency in inhibiting sodium channels from the cytoplasm side of the same cell can be assessed and quantified.
# The assay is readily performed in multi-well assay plates into which cells in growth media are added and incubated under conditions which permit the formation of a confluent monolayer over a period of hours prior to the start of the assay. Conventional culture media and conditions may be utilized. Duplicate cell assay plates are prepared for each experiment.
# The spent media from the cell seeded plates is removed on the day of the assay and replaced with Membrane potential Dye-Blue (Molecular Devices). The dye was prepared in assay buffer following manufacturer's instructions. The dye-loaded plate is incubated at room temperature (about 25° C.) for about 30 minutes in order to pre-load the cells with dye. Optionally, the cells may be loaded with the dye simultaneously with adding the test compounds.
# The test compounds are diluted in the Assay Buffer and added to each well of a specific 384-well ‘compound plate’, which serves as a source plate for compound addition using the FLIPR® platform. The concentration of compounds in the compound-plate was adjusted to achieve the desired final concentration when added to the cells in the ‘cell-plate’. After completion of the dye incubation period, the dye loaded cell-plates and the compound source plates are inserted into the FLIPR® Tetra™ device with a 384 FLIPR® tip box (Molecular Devices, Inc.) according to manufacturer's instructions. The compounds are robotically added to the dye loaded cell-plates using software integral to the FLIPR® Tetra™ instrument.
# Immediately following compound addition, hTRPV1 is activated, in one of the duplicate cell plates, by heating. Specifically, entire multi-well plate containing the compound-cells mixture is incubated at 47° C. for 10 minutes, after which they are returned to room temperature (about 25° C.) for a further 30 minutes. Heat activation of hTRPV1 was omitted from the replicate cell plate which was simply maintained at room temperature for the entire 40 minutes.
# A membrane potential response is elicited in the dye- and compound-loaded cells by the addition of veratridine which is a known sodium channel ‘agonist’. As illustrated in an example herein, an agonist plate containing veratridine (Sigma) is prepared in advance and is inserted into suitable devices such as, e.g., the FLIPR® TETRA® device for a “2nd addition” as instructed by the manufacturer. The concentration of veratridine in the ‘agonist plate’ was adjusted to achieve a final concentration of 100 μM when added to the cells in the cell-plate. Final concentrations of veratridine greater or lesser than 100 μM may also be used but the signal measured by the FLIPR®^Tetra™ device or another suitable device may vary accordingly.
# The exposure of the cells in the cell-plate to veratridine induces sodium channels in the cells to open and the resulting ion flux produces a membrane potential depolarization that is detected as a fluorescence signal by the FLIPR® ^Tetra™ Device. The activity of test compounds is determined by their ability to attenuate the veratridine-induced fluorescence signal, the most promising compounds are those that show an enhanced activity in the heat-activated cell plate over the non-heat-activated cell plate. […]
# [4] = test compound 0.5%, lidocaine 0%, total injection 100 μL
# [5] = test compound 0.5%, lidocaine 0%, total injection 200 μL
# [6] = test compound 0.5%, lidocaine 2%, total injection 100 μL
# [7] = test compound 0.5%, lidocaine 2%, total injection 200 μL
# T1 sequence (Q14524 whole entry): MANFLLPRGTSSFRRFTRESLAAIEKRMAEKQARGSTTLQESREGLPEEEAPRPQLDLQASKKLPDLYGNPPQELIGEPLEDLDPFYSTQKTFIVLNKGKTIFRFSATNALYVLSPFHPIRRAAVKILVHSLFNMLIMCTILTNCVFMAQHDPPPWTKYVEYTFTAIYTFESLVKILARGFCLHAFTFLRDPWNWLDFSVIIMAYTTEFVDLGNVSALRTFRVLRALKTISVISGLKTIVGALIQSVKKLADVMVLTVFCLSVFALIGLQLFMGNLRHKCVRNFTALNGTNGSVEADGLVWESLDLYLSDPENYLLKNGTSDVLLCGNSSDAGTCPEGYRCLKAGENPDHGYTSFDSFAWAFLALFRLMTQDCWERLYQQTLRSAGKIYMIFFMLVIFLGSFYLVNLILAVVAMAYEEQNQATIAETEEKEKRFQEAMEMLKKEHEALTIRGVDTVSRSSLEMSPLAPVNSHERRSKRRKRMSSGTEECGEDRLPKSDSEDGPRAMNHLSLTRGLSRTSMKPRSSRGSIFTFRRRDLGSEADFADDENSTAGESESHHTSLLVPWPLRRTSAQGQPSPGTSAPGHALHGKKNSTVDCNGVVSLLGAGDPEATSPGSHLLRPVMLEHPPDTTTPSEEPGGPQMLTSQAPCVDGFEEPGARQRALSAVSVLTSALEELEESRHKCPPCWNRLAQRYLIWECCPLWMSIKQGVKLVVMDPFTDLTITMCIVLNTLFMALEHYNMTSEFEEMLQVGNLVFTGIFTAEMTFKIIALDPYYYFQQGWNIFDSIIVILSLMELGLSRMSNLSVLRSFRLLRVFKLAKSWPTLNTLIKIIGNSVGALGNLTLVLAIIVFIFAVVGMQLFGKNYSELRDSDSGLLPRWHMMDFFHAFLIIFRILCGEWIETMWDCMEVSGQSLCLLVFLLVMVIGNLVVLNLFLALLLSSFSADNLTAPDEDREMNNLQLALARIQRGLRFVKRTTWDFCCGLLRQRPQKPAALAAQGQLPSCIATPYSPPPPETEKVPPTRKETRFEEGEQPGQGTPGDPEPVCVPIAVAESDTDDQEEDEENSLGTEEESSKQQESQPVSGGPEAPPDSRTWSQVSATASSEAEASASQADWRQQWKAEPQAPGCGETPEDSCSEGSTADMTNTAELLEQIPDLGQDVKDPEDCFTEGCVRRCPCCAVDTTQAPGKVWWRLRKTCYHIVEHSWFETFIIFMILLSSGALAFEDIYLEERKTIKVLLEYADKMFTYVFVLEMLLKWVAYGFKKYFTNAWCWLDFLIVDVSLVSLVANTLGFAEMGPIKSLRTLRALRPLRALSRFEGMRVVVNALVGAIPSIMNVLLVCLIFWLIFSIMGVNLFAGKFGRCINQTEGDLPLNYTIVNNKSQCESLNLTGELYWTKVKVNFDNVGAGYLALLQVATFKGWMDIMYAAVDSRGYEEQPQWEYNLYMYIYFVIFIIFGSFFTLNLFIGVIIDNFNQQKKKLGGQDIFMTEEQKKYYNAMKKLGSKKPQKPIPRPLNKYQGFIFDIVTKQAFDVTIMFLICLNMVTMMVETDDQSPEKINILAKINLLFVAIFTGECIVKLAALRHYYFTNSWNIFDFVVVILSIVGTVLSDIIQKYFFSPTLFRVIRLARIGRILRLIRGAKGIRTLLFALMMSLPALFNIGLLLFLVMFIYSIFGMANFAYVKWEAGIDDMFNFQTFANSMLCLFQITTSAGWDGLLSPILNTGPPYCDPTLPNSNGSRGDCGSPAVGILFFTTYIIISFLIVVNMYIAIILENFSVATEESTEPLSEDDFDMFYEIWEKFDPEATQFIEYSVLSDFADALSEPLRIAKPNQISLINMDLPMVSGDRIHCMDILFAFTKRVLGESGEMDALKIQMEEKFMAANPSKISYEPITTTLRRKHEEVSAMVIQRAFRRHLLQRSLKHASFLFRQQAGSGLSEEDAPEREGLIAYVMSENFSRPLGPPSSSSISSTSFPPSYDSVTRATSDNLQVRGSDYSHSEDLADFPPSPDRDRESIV
"IC50 ([3]; 47° C., numeric values) [µM]","IC50 ([3]; 47° C., class symbols) [µM]",SMILES,analgesic effects in the absence of lidocaine ([1]; absence of lidocaine),"Average Time of Analgesia [1, 4] [h]","Average Time of Analgesia [1, 5] [h]","Average Time of Analgesia [1, 6] [h]","Average Time of Analgesia [1, 7] [h]",IC50 [2] [µM],"inhibition at 10 min, 0.5 mM [2] [%]","inhibition at 10 min, 1.5 mM [2] [%]",hTRPV1-N1E Nav 0.1 mM (% inhibition) 25° C. [3] [%],hTRPV1-N1E Nav 0.1 mM (% inhibition) 47° C. [3],hTRPV1-N1E Nav 1 mM (% inhibition) 25° C. [3],hTRPV1-N1E Nav 1 mM (% inhibition) 47° C. [3],"duration of anti-nociception effect ([1]; 100 μL injection volume, 0.5% compound with 2% lidocaine (Table 8))","Average Time of Analgesia ([1]; test compound 0.25%, lidocaine 0%, total injection 200 μL) [h]","Average Time of Analgesia ([1]; test compound 0.25%, lidocaine 1%, total injection 200 μL) [h]","hTRPV1-N1E Nav (% inhibition) 25° C., tested at 0.5 mM ([3]; 0.5 mM (stated in cell, column head 0.1 mM), 25° C.) [%]","hTRPV1-N1E Nav (% inhibition) 47° C., tested at 0.5 mM ([3]; 0.5 mM (stated in cell, column head 0.1 mM), 47° C.)"
37,–,"C[N+]1(C)CCCCC1CN(c1ccccc1)C1Cc2ccccc2C1.[I-] (centres unmarked) [Example 3, 1,1-dimethyl-2-[((indan-2-yl)(phenyl)amino)methyl]piperidinium iodide]",analgesic effects of significant duration,4,9,12,>15,190,77.6,99.1,16,67 (N = 2) %,23 (N = 2) %,60 (N = 2) %,–,–,–,–,–
–,1 to 10,"Cc1ccccc1N(CCC1CCCC[N+]1(C)C)C1Cc2ccccc2C1.[I-] (centres unmarked) [Example 24, 1,1-dimethyl-2-[2-((indan-2-yl)(2-methylphenyl)amino)ethyl]piperidinium iodide]",–,–,12,32,>168,–,–,–,25.1,88.5 (N = 2) %,57.9 (N = 2) %,84.2 (N = 2) %,up to 32 hours,4,24,–,–
9,–,"CC[N+]1(CC)CCCC[C@H]1CCN(c1ccccc1)C1Cc2ccccc2C1.[I-] [Example 2, (S)-1,1-diethyl-2-[2-((indan-2-yl)(phenyl)amino)ethyl]piperidinium iodide]",–,0,4,10,>14,247,89.2,98.1,–,–,50 (N = 2) %,–,–,–,–,44,"89 (N = 2, 0.5 mM) %"
–,10 to 100,"C[N+]1(C)CCCCC1CCN(c1ccccc1F)C1Cc2ccccc2C1.[I-] (centres unmarked) [Example 4, 1,1-dimethyl-2-[2-((2-fluorophenyl)(indan-2-yl)amino)ethyl]piperidinium iodide]",–,–,–,1,–,–,–,–,0,94.7 (N = 3) %,0 (N = 3) %,67.0 (N = 3) %,–,–,–,–,–
